Read-outs that look alike come from different tables or passages of the source.
Tests used:
Assay type in all cases: in vivo
[1] = tested on: Key Broadleaf Weed and Crop Species; experiment: Post-Emergent Test II: postemergent herbicidal activity, visual rating after 14 d (Table 7); details: post-emergence, 336 h; for pest or weed control at 35 g/ha: 35 g ai/ha; for pest or weed control at 70 g/ha: 70 g ai/ha; for pest or weed control at 140 g/ha: 140 g ai/ha; for pest or weed control at 280 g/ha: 280 g ai/ha
In short: (§1)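 Post-emergence foliar spray, 187 L/ha, first/second true leaf stage plants in potting mix (pH 6.0-6.8). Rates: top rate and 2-fold serial dilutions to 1/16×. Solvent-blank controls. Readout: visual % kill at 14 d.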

[2] = tested on: Key Broadleaf and Grass Weed as well as Crop Species; experiment: Post-Emergent Test I: postemergent herbicidal activity, visual phytotoxicity rating 10 days after treatment (Table 5); details: 4 kg ai/ha; for pest or weed control at 4000 g/ha: post-emergence, 240 h, 10 days after application
Protocol: Herbicidal evaluations were made visually on a scale of 0 to 100 where 0 represents no activity and 100 represents complete plant death. Post-Emergent Test I: Seeds of test species were obtained from commercial suppliers and planted into a 5″-round pot containing soil-less media mix (Metro-Mix 360®, Sun Gro Horticulture). Postemergence treatments were planted 8-12 days (d) prior to application and cultured in a greenhouse equipped with supplemental light sources to provide a 16 h photoperiod at 24-29° C. All pots were surface irrigated. Approximately 10 milligrams (mg) of each compound were dissolved in 1.3 mL acetone-DMSO (97:3, volume per volume (v/v)) and diluted with 4.1 mL water-isopropanol-crop oil concentrate (78:20:2, v/v/v) containing 0.02% Triton X-155. Treatments were serial diluted with the above formulation solvent to provide 1.85, 0.926, 0.462 and 0.231 milligrams per milliliter (mg/mL) of test compound delivered in 2.7 mL/pot (roughly equivalent to 4.0, 2.0, 1.0, and 0.5 kg/ha, respectively). Formulated compounds were applied using a DeVilbiss® compressed air sprayer at 2-4 pounds per square inch (psi). Following treatment, pots were returned to the greenhouse for the duration of the experiment. All pots were sub-irrigated as needed to provide optimum growing conditions. All pots were fertilized one time per week by subirrigating with Peters Peat-Lite Special® fertilizer (20-10-20). Phytotoxicity ratings were obtained 10 days after treatment postemergence applications. All evaluations were made visually on a scale of 0 to 100 where 0 represents no activity and 100 represents complete plant death and are presented as indicated in Table 4.

[3] = tested on: Key Grass and Sedge Weeds as well as Grass Crops; experiment: Post-Emergent Test II: postemergent herbicidal activity, visual rating after 14 d (Table 8); details: post-emergence, 336 h; for pest or weed control at 35 g/ha: 35 g ai/ha; for pest or weed control at 70 g/ha: 70 g ai/ha; for pest or weed control at 140 g/ha: 140 g ai/ha; for pest or weed control at 280 g/ha: 280 g ai/ha
In short: as §1

[4] = lambsquarters (Chenopodium album), read-out: Visual Growth Reduction (%) 14 Days After Application CHEAL
[5] = oilseed rape, canola (Brassica napus), read-out: Visual Growth Reduction (%) 14 Days After Application BRSNN
[6] = redroot pigweed (Amaranthus retroflexus), read-out: Visual Growth Reduction (%) 14 Days After Application AMARE
[7] = sunflower (Helianthus annuus), read-out: Visual Growth Reduction (%) 14 Days After Application HELAN
[8] = velvetleaf (Abutilon theophrasti), read-out: Visual Growth Reduction (%) 14 Days After Application ABUTH
[9] = wild poinsettia (Euphorbia heterophylla), read-out: Visual Growth Reduction (%) 14 Days After Application EPHHL
[10] = barnyardgrass (Echinochloa crus-galli), read-out: Visual Growth Reduction (%) 14 Days After Application ECHCG
[11] = giant foxtail (Setaria faberi), read-out: Visual Growth Reduction (%) 14 Days After Application SETFA
[12] = maize, corn (Zea mays), read-out: Visual Growth Reduction (%) 14 Days After Application ZEAMX
[13] = rice (Oryza sativa), read-out: Visual Growth Reduction (%) 14 Days After Application ORYSA
[14] = wheat, spring (Triticum aestivum), read-out: Visual Growth Reduction (%) 14 Days After Application TRZAS
[15] = yellow nutsedge (Cyperus esculentus), read-out: Visual Growth Reduction (%) 14 Days After Application CYPES

COC(=O)c1nc(-c2cccc3c2OCO3)c(F)c(N)c1Cl [Compound 71, Methyl 4-amino-6-(benzo[d][1,3]dioxol-4-yl)-3-chloro-5-fluoropicolinate]
pest or weed control at 35 g/ha [1, 4]: 95 to 100% | pest or weed control at 70 g/ha [1, 4]: 95 to 100% | pest or weed control at 140 g/ha [1, 4]: 95 to 100% | pest or weed control at 280 g/ha [1, 4]: 95 to 100% | pest or weed control at 35 g/ha [1, 5]: 30 to 44% | pest or weed control at 70 g/ha [1, 5]: 85 to 94% | pest or weed control at 140 g/ha [1, 5]: 85 to 94% | pest or weed control at 280 g/ha [1, 5]: 95 to 100% | pest or weed control at 35 g/ha [1, 6]: 60 to 74% | pest or weed control at 70 g/ha [1, 6]: 95 to 100% | pest or weed control at 140 g/ha [1, 6]: 95 to 100% | pest or weed control at 280 g/ha [1, 6]: 95 to 100% | pest or weed control at 35 g/ha [1, 7]: 85 to 94% | pest or weed control at 70 g/ha [1, 7]: 95 to 100% | pest or weed control at 140 g/ha [1, 7]: 95 to 100% | pest or weed control at 280 g/ha [1, 7]: 95 to 100% | pest or weed control at 35 g/ha [1, 8]: 60 to 74% | pest or weed control at 70 g/ha [1, 8]: 75 to 84% | pest or weed control at 140 g/ha [1, 8]: 95 to 100% | pest or weed control at 280 g/ha [1, 8]: 95 to 100% | pest or weed control at 35 g/ha [1, 9]: 0 to 29% | pest or weed control at 70 g/ha [1, 9]: 0 to 29% | pest or weed control at 140 g/ha [1, 9]: 0 to 29% | pest or weed control at 280 g/ha [1, 9]: 0 to 29% | Visual Growth Reduction (%) 10 Days After Application ECHCG ([2]; barnyardgrass (Echinochloa crus-galli)): G (0-29) | pest or weed control at 4000 g/ha ([2]; giant foxtail (Setaria faberi), read-out: Visual Growth Reduction (%) 10 Days After Application SETFA): 0 to 29% | pest or weed control at 4000 g/ha ([2]; ivyleaf morningglory (Ipomoea hederecea), read-out: Visual Growth Reduction (%) 10 Days After Application IPOHE): 75 to 84% | pest or weed control at 4000 g/ha ([2]; sunflower (Helianthus annuus), read-out: Visual Growth Reduction (%) 10 Days After Application HELAN): 95 to 100% | pest or weed control at 4000 g/ha ([2]; wild oats (Avena fatua), read-out: Visual Growth Reduction (%) 10 Days After Application AVEFA): 0 to 29% | pest or weed control at 35 g/ha [3, 10]: 0 to 29% | pest or weed control at 70 g/ha [3, 10]: 0 to 29% | pest or weed control at 140 g/ha [3, 10]: 0 to 29% | pest or weed control at 280 g/ha [3, 10]: 0 to 29% | pest or weed control at 35 g/ha [3, 11]: 0 to 29% | pest or weed control at 70 g/ha [3, 11]: 0 to 29% | pest or weed control at 140 g/ha [3, 11]: 0 to 29% | pest or weed control at 280 g/ha [3, 11]: 0 to 29% | pest or weed control at 35 g/ha [3, 12]: 0 to 29% | pest or weed control at 70 g/ha [3, 12]: 0 to 29% | pest or weed control at 140 g/ha [3, 12]: 0 to 29% | pest or weed control at 280 g/ha [3, 12]: 0 to 29% | pest or weed control at 35 g/ha [3, 13]: 0 to 29% | pest or weed control at 70 g/ha [3, 13]: 0 to 29% | pest or weed control at 140 g/ha [3, 13]: 0 to 29% | pest or weed control at 280 g/ha [3, 13]: 0 to 29% | pest or weed control at 35 g/ha [3, 14]: 0 to 29% | pest or weed control at 70 g/ha [3, 14]: 0 to 29% | pest or weed control at 140 g/ha [3, 14]: 0 to 29% | pest or weed control at 280 g/ha [3, 14]: 0 to 29% | pest or weed control at 35 g/ha [3, 15]: 0 to 29% | pest or weed control at 70 g/ha [3, 15]: 0 to 29% | pest or weed control at 140 g/ha [3, 15]: 30 to 44% | pest or weed control at 280 g/ha [3, 15]: 45 to 59%

Reference: patent US9149038B2, “4-amino-6-(heterocyclic)picolinates and 6-amino-2-(heterocyclic)pyrimidine-4-carboxylates and their use as herbicides” (Dow AgroSciences LLC, priority 2013, dated 2015)
